The results in this text go back to patent US6638509B1, “Toxin conjugates” (Kyowa Hakko Kogyo, Co., Ltd., priority 1995, dated 2003).

Structures are written as SMILES.

The test concerns Human myeloma SK-Ly-18 cells. The test is described as follows: Therapeutic effect on transplanted tumor in nude mice (Test Example 4). Type of test: in vivo, BALB/C nu/nu mice. The settings on record: intravenous, amount corresponding to 7.5 mg/kg ADM, on the 7th day after transplantation, compared with control group, FIG. 2. Here is the method: Human myeloma SK-Ly-18 cells were suspended in RPMI-1640 medium containing 10% fetal calf serum at a concentration of 2×10^8 cells/ml, and the suspension was mixed with Matrigel (registered trademark; Becton Dickinson Labware, USA) in the ratio of 1:1 (v/v). The mixture (0.1 ml, 1×10^7 cells/mouse) was subcutaneously transplanted into BALB/C nu/nu mice (Clea Japan, Inc.). On the 7th day after the tumor transplantation, a drug-monoclonal antibody conjugate (amount corresponding to 7.5 mg/kg ADM) or ADM (7.5 mg/kg) was intravenously administered to the mice divided in groups each consisting of 5. A control group was given physiological saline in the same manner. The major axis and the minor axis of tumor were measured at intervals, and the tumor volume was calculated as an approximation value of an ellipsoid according to the following equation.
Tumor Volume (mm^3)=(a×b^2)/2
a: major axis (mm) b: minor axis (mm)
The therapeutic effect on the transplanted tumor was evaluated in terms of V/V0, the ratio of the tumor volume on the day of evaluation (V) to that on the day of drug administration (V0).

With `COc1cccc2c1C(=O)c1c(O)c3c(c(O)c1C2=O)C[C@@](O)(C(=O)CO)C[C@@H]3O[C@H]1C[C@H](N)[C@H](O)[C@H](C)O1` [ADM, Adriamycin, reference compound], the “tumor growth inhibiting effect (V/V0)” value is “a growth inhibiting effect was not observed”.
